Drawing on patent publication US20240150290A1, “HETEROCYCLIC P2Y14 RECEPTOR ANTAGONISTS” (priority 2021, published 2024), this text covers IC50 for 28 compounds.

Read-outs that look alike come from different tables or passages of the source.

This assay has as its target T1, hP2Y14R (Homo sapiens, UniProt Q15391).
T1 construct: expressed in transfected cells; host or cells: CHO cells
T1 sequence (Q15391 1-338): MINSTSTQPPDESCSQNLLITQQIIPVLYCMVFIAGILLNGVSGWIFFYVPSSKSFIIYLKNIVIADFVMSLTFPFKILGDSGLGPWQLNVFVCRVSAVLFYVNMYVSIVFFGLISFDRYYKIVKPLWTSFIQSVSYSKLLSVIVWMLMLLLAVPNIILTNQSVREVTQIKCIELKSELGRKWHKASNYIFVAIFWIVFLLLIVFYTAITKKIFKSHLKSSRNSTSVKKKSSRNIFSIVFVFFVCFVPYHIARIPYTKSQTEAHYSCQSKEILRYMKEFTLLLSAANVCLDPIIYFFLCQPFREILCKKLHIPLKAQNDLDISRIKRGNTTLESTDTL
Briefly: Inhibition of fluorescent antagonist binding in whole hP2Y14R-expressing CHO cells (flow cytometry). (In general: A flow cytometer gives signals particle by particle.)

Setting [1] is: Example 5 table, whole cell fluorescent binding assay, read-out: IC50.
Where [2] appears, read: Table 1, fluorescent antagonist 2, hP2Y14R-CHO cells, 3-4 determinations, read-out: IC50, hP2Y14R (μM, mean ± SEM).
[3] abbreviates: Table 2, whole hP2Y14R-CHO cells, 20 nM fluorescent antagonist 3, mean+SEM, n = 3-6, read-out: IC50.

In general, IC50 refers to the concentration at which inhibition is half-maximal. With `N[C@H]1C[C@@H](CO)C[C@@H]1c1ccc(-c2cc(C(=O)O)cc3cc(-c4ccc(C(F)(F)F)cc4)ccc23)cc1` [Compound 137, 4-(4-((1R,2S,4S)-2-Amino-4-(hydroxymethyl)cyclopentyl)phenyl)-7-(4-(trifluoromethyl)phenyl)-2-naphthoic acid], under “Table 6, fluorescent hP2Y14R antagonist (3), read-out: hP2Y14R, IC50”, the IC50 was determined as 0.125 ± 0.045 µM.
With `O=C(O)c1cc(-c2ccc([C@H]3[C@@H]4CNC[C@H]3C4)cc2)c2ccc(-c3ccc(C(F)(F)F)cc3)cc2c1` [Compound 424, 4-(4-((1R,5S,6r)-3-Azabicyclo[3.1.1]heptan-6-yl)phenyl)-7-(4-(trifluoromethyl)phenyl)-2-naphthoic acid], the 50% inhibitory concentration (IC50) under setting [1] is 0.524 ± 0.104 µM.
In the case of `O=C(O)c1cc(-c2ccc([C@@]3(O)[C@@H]4CNC[C@H]3C4)cc2)c2ccc(-c3ccc(C(F)(F)F)cc3)cc2c1` [Compound 425, 4-(4-((1R,5S,6r)-6-Hydroxy-3-azabicyclo[3.1.1]heptan-6-yl)phenyl)-7-(4-(trifluoromethyl)phenyl)-2-naphthoic acid], the IC50 under setting [1] came out at 0.00592 ± 0.00055 µM.
Regarding `O=C(O)c1cc(-c2ccc(C3=C[C@H]4CNC[C@@H]4C3)cc2)c2ccc(-c3ccc(C(F)(F)F)cc3)cc2c1` (racemic) [Compound 412, rac-4-(4-((3aR,6aR)-1,2,3,3a,4,6a-Hexahydrocyclopenta[c]pyrrol-5-yl)phenyl)-7-(4-(trifluoromethyl)phenyl)-2-naphthoic acid], the half-maximal inhibitory concentration (IC50) (read-out: IC50) worked out at 0.0166 ± 0.0032 µM.
As for `O=C(O)c1cc(-c2ccc(C3CCCNCC3)cc2)c2ccc(-c3ccc(C(F)(F)F)cc3)cc2c1` (stereo not shown) [Compound 426, 4-(4-(Azepan-4-yl)phenyl)-7-(4-(trifluoromethyl)phenyl)-2-naphthoic acid], the IC50 under setting [1] amounted to 0.00958 ± 0.00514 µM.
For `N#CCCc1ccc(-c2cc(C(=O)O)cc(-n3cc(-c4ccc(C(F)(F)F)cc4)nn3)c2)cc1` [Compound 17, 4′-(2-Cyanoethyl)-5-(4-(4-(trifluoromethyl)phenyl)-1H-1,2,3-triazol-1-yl)-[1,1′-biphenyl]-3-carboxylic acid], the 50% inhibitory concentration (IC50) under setting [2] stood at 17.8 ± 2.9 µM.
Take `O=C(O)c1cc(-c2ccc([C@H]3C[C@H]4C[C@@H]3C(=O)N4)cc2)c2ccc(-c3ccc(C(F)(F)F)cc3)cc2c1` [Compound 119, 4-(4-((1S,4S,5S)-3-Oxo-2-azabicyclo[2.2.1]heptan-5-yl)phenyl)-7-(4-(trifluoromethyl)phenyl)-2-naphthoic acid]: the IC50 under setting [3] amounted to 0.101 ± 0.07 µM.
For the compound `CC(C)(C)OC(=O)N1CCC(C(=O)Nc2ccc(-c3cc(C(=O)O)cc(-n4cc(-c5ccc(C(F)(F)F)cc5)nn4)c3)cc2)CC1` [Compound 12, 4′-(1-(tert-Butoxycarbonyl)piperidine-4-carboxamido)-5-(4-(4-(trifluoromethyl)phenyl)-1H-1,2,3-triazol-1-yl)-[1,1′-biphenyl]-3-carboxylic acid], the half-inhibitory concentration (IC50) under setting [2] was found to be 22.5 ± 3.7 µM.
As to `CS(=O)(=O)N1C[C@H]2C[C@@H]1C[C@@H]2c1ccc(-c2cc(C(=O)O)cc3cc(-c4ccc(C(F)(F)F)cc4)ccc23)cc1` [Compound 123], the IC50 under setting [3] worked out at 0.497 ± 0.092 µM.
As for `NCC1(c2ccc(-c3cc(C(=O)O)cc(-n4cc(-c5ccc(C(F)(F)F)cc5)nn4)c3)cc2)CC1` [Compound 23, 4′-(1-(Aminomethyl)cyclopropyl)-5-(4-(4-(trifluoromethyl)phenyl)-1H-1,2,3-triazol-1-yl)-[1,1′-biphenyl]-3-carboxylic acid], under setting [2], the IC50 amounted to 8.91 ± 0.75 µM.
For `O=C(O)c1cc(-c2ccc(C3C[C@H]4CNC[C@@H]4C3)cc2)c2ccc(-c3ccc(C(F)(F)F)cc3)cc2c1` (racemic) [Compound 413, rac-4-(4-((3aR,6aR)-Octahydrocyclopenta[c]pyrrol-5-yl)phenyl)-7-(4-(trifluoromethyl)phenyl)-2-naphthoic acid], where the note is “read-out: IC50”, the IC50 is 0.032 ± 0.0112 µM.
As for `CC(C)(C)OC(=O)NCC1(c2ccc(-c3cc(C(=O)O)cc(-n4cc(-c5ccc(C(F)(F)F)cc5)nn4)c3)cc2)CC1` [Compound 24, 4′-(1-(((tert-Butoxycarbonyl)amino)methyl)cyclopropyl)-5-(4-(4-(trifluoromethyl)phenyl)-1H-1,2,3-triazol-1-yl)-[1,1′-biphenyl]-3-carboxylic acid], the IC50 under setting [2] was determined as 18.8 ± 2 µM.
With `NC1(c2ccc(-c3cc(C(=O)O)cc(-n4cc(-c5ccc(C(F)(F)F)cc5)nn4)c3)cc2)CCC1` [Compound 25, 4′-(1-Aminocyclobutyl)-5-(4-(4-(trifluoromethyl)phenyl)-1H-1,2,3-triazol-1-yl)-[1,1′-biphenyl]-3-carboxylic acid], under setting [2], the IC50 was 2 ± 0.18 µM.
In the case of `O=C(O)c1cc(-c2ccc(C3=CC4(CNC4)C3)cc2)c2ccc(-c3ccc(C(F)(F)F)cc3)cc2c1` [Compound 407, 4-(4-(2-Azaspiro[3.3]hept-5-en-6-yl)phenyl)-7-(4-(trifluoromethyl)phenyl)-2-naphthoic acid], the IC50 under setting [1] came out at 0.00969 ± 0.00356 µM.
Turning to `CC(=O)Nc1ccc(-c2cc(C(=O)O)cc(-n3cc(-c4ccc(C(F)(F)F)cc4)nn3)c2)cc1` [Compound 8, 4′-Acetamido-5-(4-(4-(trifluoromethyl)phenyl)-1H-1,2,3-triazol-1-yl)-[1,1′-biphenyl]-3-carboxylic acid], the IC50 under setting [2] was found to be 0.811 ± 0.095 µM.
As for `O=C(O)c1cc(-c2ccc(C3CNC3)cc2)c2ccc(-c3ccc(C(F)(F)F)cc3)cc2c1` [Compound 405, 4-(4-(Azetidin-3-yl)phenyl)-7-(4-(trifluoromethyl)phenyl)-2-naphthoic acid], the IC50 under setting [1] amounted to 0.0659 ± 0.0193 µM.
Consider `O=C(O)c1ccc(-c2cc(C(=O)O)cc(-n3cc(-c4ccc(C(F)(F)F)cc4)nn3)c2)cc1` [Compound 13, 5-(4-(4-(Trifluoromethyl)phenyl)-1H-1,2,3-triazol-1-yl)-[1,1′-biphenyl]-3,4′-dicarboxylic acid], for which the IC50 under setting [2] is 0.632 ± 0.023 µM.
Still for that read-out and setting: as for `O=C(O)c1cc(-c2ccc(CCCCO)cc2)cc(-n2cc(-c3ccc(C(F)(F)F)cc3)nn2)c1` [Compound 21, 4′-(4-Hydroxybutyl)-5-(4-(4-(trifluoromethyl)phenyl)-1H-1,2,3-triazol-1-yl)-[1,1′-biphenyl]-3-carboxylic acid], the figure is 9.22 ± 1.22 µM.
In the case of `O=C(O)c1cc(-c2ccc(C3CC4(CNC4)C3)cc2)c2ccc(-c3ccc(C(F)(F)F)cc3)cc2c1` [Compound 406, 4-(4-(2-Azaspiro[3.3]heptan-6-yl)phenyl)-7-(4-(trifluoromethyl)phenyl)-2-naphthoic acid], the IC50 under setting [1] was 0.0466 ± 0.0071 µM.
With “Mixture of 4-(4-(2,3,6,7-Tetrahydro-1H-azepin-4-yl)phenyl)-7-(4-(trifluoromethyl)phenyl)-2-naphthoic acid and 4-(4-(2,5,6,7-tetrahydro-1H-azepin-4-yl)phenyl)-7-(4-(trifluoromethyl)phenyl)-2-naphthoic acid [Compound 427]”, under setting [1], the IC50 came to 0.0119 ± 0.0036 µM.
The same measure, in the same setting: as for `O=C(O)c1cc(-c2ccc(C3(O)CC4(CNC4)C3)cc2)c2ccc(-c3ccc(C(F)(F)F)cc3)cc2c1` [Compound 408, 4-(4-(6-Hydroxy-2-azaspiro[3.3]heptan-6-yl)phenyl)-7-(4-(trifluoromethyl)phenyl)-2-naphthoic acid], the figure is 0.0208 ± 0.0056 µM.
As for `NCCCc1ccc(-c2cc(C(=O)O)cc(-n3cc(-c4ccc(C(F)(F)F)cc4)nn3)c2)cc1` [Compound 18, 4′-(3-Aminopropyl)-5-(4-(4-(trifluoromethyl)phenyl)-1H-1,2,3-triazol-1-yl)-[1,1′-biphenyl]-3-carboxylic acid], the IC50 under setting [2] came out at 0.292 ± 0.067 µM.
Turning to `O=C(O)c1cc(-c2ccc(C3(O)C[C@H]4CNC[C@@H]4C3)cc2)c2ccc(-c3ccc(C(F)(F)F)cc3)cc2c1` (racemic) [Compound 411, rac-4-(4-((3aR,6aR)-5-hydroxyoctahydrocyclopenta[c]pyrrol-5-yl)phenyl)-7-(4-(trifluoromethyl)phenyl)-2-naphthoic acid], the IC50 (read-out: IC50) is 0.00948 ± 0.00166 µM.
On to `O=C(O)c1cc(-c2ccc(C3(O)CCCNCCC3)cc2)c2ccc(-c3ccc(C(F)(F)F)cc3)cc2c1` [Compound 430, 4-(4-(5-hydroxyazocan-5-yl)phenyl)-7-(4-(trifluoromethyl)phenyl)-2-naphthoic acid], for which, under setting [1], the IC50 is 1.78 ± 0.44 µM.
As to `NC(=O)Cc1ccc(-c2cc(C(=O)O)cc(-n3cc(-c4ccc(C(F)(F)F)cc4)nn3)c2)cc1` [Compound 16, 4′-(2-Amino-2-oxoethyl)-5-(4-(4-(trifluoromethyl)phenyl)-1H-1,2,3-triazol-1-yl)-[1,1′-biphenyl]-3-carboxylic acid], the IC50 under setting [2] amounted to 1.29 ± 0.32 µM.
The same measure, in the same setting: the figure for `NC1(c2ccc(-c3cc(C(=O)O)cc(-n4cc(-c5ccc(C(F)(F)F)cc5)nn4)c3)cc2)CC1` [Compound 22, 4′-(1-Aminocyclopropyl)-5-(4-(4-(trifluoromethyl)phenyl)-1H-1,2,3-triazol-1-yl)-[1,1′-biphenyl]-3-carboxylic acid] is 14.1 ± 0.9 µM.
The same measure, in the same setting: as for `Nc1ccc(-c2cc(C(=O)O)cc(-n3cc(-c4ccc(C(F)(F)F)cc4)nn3)c2)cc1` [Compound 7, 4′-Amino-5-(4-(4-(trifluoromethyl)phenyl)-1H-1,2,3-triazol-1-yl)-[1,1′-biphenyl]-3-carboxylic acid], the figure is 1.48 ± 0.16 µM.
Take `O=C(O)c1cc(-c2ccc(C3CCN(CCCCc4cn([C@@H]5O[C@H](CO)[C@@H](O)[C@H](O)[C@H]5O)nn4)CC3)cc2)c2ccc(-c3ccc(C(F)(F)F)cc3)cc2c1` [Compound 508, 7-(4-(Trifluoromethyl)phenyl)-4-(4-(1-(4-(1-((2R,3R,4S,5S,6R)-3,4,5-trihydroxy-6-(hydroxymethyl)tetrahydro-2H-pyran-2-yl)-1H-1,2,3-triazol-4-yl)butyl)piperidin-4-yl)phenyl)-2-naphthoic acid]: the IC50 under setting [3] amounted to 0.0157 ± 0.0025 µM.
